Entries after “also recorded” stand apart in the source; their conditions may differ.
Tests used:
[1] = test system: pinacidil induced DMR signal in HepG2C3A cells; experiment: Label-free RWG biosensor DMR assay, modulation of the pinacidil induced DMR signal; format: cell-based, human; conditions: pre-incubation with compound, pinacidil 40 μM
Protocol: Transfection of siRNAs was performed using N-TER Nanoparticle siRNA Transfection System (Cat#N2913) from Sigma-Aldrich Inc. following the manufacturer's instructions. Briefly, 5000 cells were plated in each well of Epic 384-well plates. Cells were transfected with 50 nM siRNA the next day and incubated in siRNA containing medium for 24 hrs before replaced with fresh cell culture medium. Epic cell assay was performed 48 hours after transfection.
(§1) Epic® wavelength interrogation system (Corning Inc., Corning, N.Y.) was used for whole cell sensing. This system consists of a temperature-control unit, an optical detection unit, and an on-board liquid handling unit with robotics. The detection unit is centered on integrated fiber optics, and enables kinetic measures of cellular responses with a time interval of ˜15sec. The compound solutions were introduced by using the on-board liquid handling unit (i.e., pippetting).
The RWG biosensor is capable of detecting minute changes in local index of refraction near the sensor surface. Since the local index of refraction within a cell is a function of density and its distribution of biomass (e.g., proteins, molecular complexes), the biosensor exploits its evanescent wave to non-invasively detect ligand-induced dynamic mass redistribution in native cells. The evanescent wave extends into the cells and exponentially decays over distance, leading to a characteristic sensing volume of ˜150 nm, implying that any optical response mediated through the receptor activation only represents an average over the portion of the cell that the evanescent wave is sampling. The aggregation of many cellular events downstream the receptor activation determines the kinetics and amplitudes of a ligand-induced DMR.
For biosensor cellular assays, compound solutions were made by diluting the stored concentrated solutions with the HBSS (1× Hanks balanced salt solution, plus 20 mM Hepes, pH 7.1), and transferred into a 384well polypropylene compound storage plate to prepare a compound source plate. Two compound source plates were made separately when a two-step assay was performed. In parallel, the cells were washed twice with the HBSS and maintained in 30 μl of the HBSS to prepare a cell assay plate. Both the cell assay plate and the compound source plate(s) were then incubated in the hotel of the reader system. After incubation the baseline wavelengths of all biosensors in the cell assay microplate were recorded and normalized to zero. Afterwards, a 2 to 10 min continuous recording was carried out to establish a baseline, and to ensure that the cells reached a steady state. Cellular responses were then triggered by transferring 10 μl of the compound solutions into the cell assay plate using the on-board liquid handler.
All studies were carried out under controlled temperature (28° C.). At least two independent sets of experiments, each with at least three replicates, were performed.

[2] = test system: mito-KATP channels in HepG2C3A cells; experiment: Label-free RWG biosensor (Epic) DMR cellular assay, agonism mode; format: cell-based, human; conditions: 28° C.
Excerpt: as §1
The RWG biosensor is capable of detecting minute changes in local index of refraction near the sensor surface. Since the local index of refraction within a cell is a function of density and its distribution of biomass (e.g., proteins, molecular complexes), the biosensor exploits its evanescent wave to non-invasively detect ligand-induced dynamic mass redistribution in native cells. […]
For biosensor cellular assays, compound solutions were made by diluting the stored concentrated solutions with the HBSS (1× Hanks balanced salt solution, plus 20 mM Hepes, pH 7.1), and transferred into a 384well polypropylene compound storage plate to prepare a compound source plate. […] Both the cell assay plate and the compound source plate(s) were then incubated in the hotel of the reader system. After incubation the baseline wavelengths of all biosensors in the cell assay microplate were recorded and normalized to zero. […]

| Compound | effect on the pinacidil induced DMR signal [1] | pinacidil induced DMR signal (amplitudes and kinetics) [2] |
| --- | --- | --- |
| N#C/C(=C/c1ccc(O)c(O)c1)C(=O)NCc1ccccc1 [AG490] | dose-dependently reduced |  |
| C1CCC(N=C(NC23CC4CC(CC(C4)C2)C3)N2CCOCC2)CC1.Cl [U-37883A] | no effect |  |
| C[C@@H](N)[C@H]1CC[C@H](C(=O)Nc2ccncc2)CC1 [Y-27632] | reduced the pinacidil induced DMR signal dose-dependently |  |
| C=C1[C@@H](C)[C@H]2[C@H](Cc3ccccc3)NC(=O)[C@]23OC(=O)/C=C/[C@H](O)CCC[C@@H](C)C/C=C/[C@H]3[C@@H]1O [cytochalasin B] | dose-dependently reduce |  |
| C/C1=C/C(=O)O[C@@H]2C[C@@H](CC[C@H](C)/C=C\C=C\CC1)O[C@@](O)([C@@H]1CSC(=O)N1)C2 [latrunculin A] | dose-dependently reduce |  |
| CC(N/C(=N\C#N)Nc1ccncc1)C(C)(C)C (centres unmarked) [pinacidil] |  | robust; also recorded: concentration dependent |
| CCCCNC(=O)NS(=O)(=O)c1ccc(C)cc1 [tobutamide] | dose-dependently inhibited |  |
| Cc1ccc(S(=O)(=O)NC(=O)NN2CCCCCC2)cc1 [tolazamide] | dose-dependent inhibition; also recorded: dose-dependently inhibited |  |
